Measured values as given in the Kinase Knowledgebase extract (Sharma et al. 2016).

Molecular target: MAPK14 (human) (UniProt Q16539)
Experiment: Inhibition of MAPK14 Kinase Activity

MAPK14 (human), sequence (Q16539 whole entry, looked up): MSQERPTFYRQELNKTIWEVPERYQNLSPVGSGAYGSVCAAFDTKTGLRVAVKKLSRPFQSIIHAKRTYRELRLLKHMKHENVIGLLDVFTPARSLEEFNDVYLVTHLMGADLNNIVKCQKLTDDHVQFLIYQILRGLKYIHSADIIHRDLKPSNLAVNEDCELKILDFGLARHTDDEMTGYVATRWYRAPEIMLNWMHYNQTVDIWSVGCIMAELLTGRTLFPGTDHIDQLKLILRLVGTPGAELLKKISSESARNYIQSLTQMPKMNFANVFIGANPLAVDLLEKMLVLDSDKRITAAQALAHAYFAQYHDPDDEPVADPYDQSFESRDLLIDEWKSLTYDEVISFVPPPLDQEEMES

IC50, ≤ 10 µM:
O=C1COC(Cc2ccc(F)cc2F)CN1c1c(Cl)ccc(CO)c1Cl (stereo not drawn), Cc1cc(C)cc(OC2CCC(=O)N(c3c(Cl)ccnc3Cl)C2)c1 (stereo not drawn), O=C1CCC(Sc2ccccc2Cl)CN1c1c(Cl)ccnc1Cl (stereo not drawn), O=C1CCC(Oc2ccc(F)cc2F)CN1c1c(Cl)csc1Cl (stereo not drawn), O=C1CSC(Cc2ccccc2F)CN1c1c(Cl)cccc1Cl (stereo not drawn), Cc1ccc(SC2CCC(=O)N(c3c(Cl)cncc3Cl)C2)cc1 (stereo not drawn), O=C(N[C@H]1C[C@H](Cc2ccc(F)cc2F)CN(c2c(Cl)cccc2Cl)C1=O)OCc1ccccc1, Cc1cc(C)cc(SC2CCC(=O)N(c3c(Cl)csc3Cl)C2)c1 (stereo not drawn), Cc1cccc(C)c1N1C[C@H](Cc2ccc(F)cc2F)C[C@@H](C)C1=O, Cc1ccccc1SC1CCC(=O)N(c2c(Cl)ccnc2Cl)C1 (stereo not drawn), Cc1cc(C)cc(OC2CCC(=O)N(c3c(Cl)cncc3Cl)C2)c1 (stereo not drawn), CC(=O)NC1CC(Cl)C(N2CC(Cc3ccc(F)cc3F)CCC2=O)C(Cl)C1 (stereo not drawn), O=C(Cc1ccccc1)Nc1ncc(Cl)c(N2CC(Oc3ccc(F)cc3F)CCC2=O)c1Cl (stereo not drawn), O=C1CCC(Cc2ccc(F)cc2F)CN1c1c(Cl)cc(O)nc1Cl (stereo not drawn), NC1CC(Cl)C(N2CC(Sc3ccc(F)cc3F)CCC2=O)C(Cl)C1 (stereo not drawn), CC(=O)N(C)c1cc(Cl)c(N2CC(Cc3ccc(F)cc3F)CCC2=O)c(Cl)c1 (stereo not drawn), NC1CC(Cl)C(N2CC(Cc3ccc(F)cc3F)CCC2=O)C(Cl)C1 (stereo not drawn), O=C1SCC(Cc2ccc(Cl)cc2Cl)CN1c1c(Cl)cccc1Cl (stereo not drawn), Cc1cccc(C)c1N1CC(Cc2ccc(F)cc2F)CCC1=O (stereo not drawn), Nc1ccc(Cl)c(N2CC(Cc3ccc(F)cc3F)CCC2=O)c1Cl (stereo not drawn), O=C1CCC(Nc2ccc(F)cc2F)CN1c1c(Cl)cccc1Cl (stereo not drawn), CN1CC(Cc2ccccc2Cl)CN(c2c(Cl)cccc2Cl)C1=O (stereo not drawn), COc1ccccc1CC1COC(=O)N(c2c(Cl)cccc2Cl)C1 (stereo not drawn), O=C1SCC(Cc2ccc(F)cc2)CN1c1c(Cl)cccc1Cl (stereo not drawn), Nc1ncc(Cl)c(N2CC(Sc3ccc(F)cc3F)CCC2=O)c1Cl (stereo not drawn), CN1CC(Cc2ccc(F)cc2F)CN(c2c(Cl)ccc(CO)c2Cl)C1=O (stereo not drawn), COC(=O)/C=C/c1cc(C)c(N2CC(Cc3ccc(F)cc3F)CCC2=O)c(C)c1 (stereo not drawn), COC(=O)Nc1cc(Cl)c(N2CC(Cc3ccc(F)cc3F)CCC2=O)c(Cl)c1 (stereo not drawn), Cc1nc(CNc2cc(Cl)c(N3CC(Cc4ccc(F)cc4F)CCC3=O)c(Cl)c2)c[nH]1 (stereo not drawn), O=C1CC[C@@H](Cc2ccc(F)cc2F)CN1c1c(Cl)cccc1Cl, O=C1CSC(Cc2cccc3ccccc23)CN1c1c(Cl)cccc1Cl (stereo not drawn), O=C1CCC(Cc2ccc(Cl)cc2Cl)CN1c1c(Cl)ccnc1Cl (stereo not drawn), CC(=O)Nc1ccc(Cl)c(N2CC(Cc3ccc(F)cc3F)CCC2=O)c1Cl (stereo not drawn), NC(=O)CNc1cc(Cl)c(N2CC(Cc3ccc(F)cc3F)CCC2=O)c(Cl)c1 (stereo not drawn), O=C1CCC(Cc2cc(F)cc(F)c2)CN1c1c(Cl)cccc1Cl (stereo not drawn), CC(=O)NCCNc1cc(Cl)c(N2CC(Cc3ccc(F)cc3F)CCC2=O)c(Cl)c1 (stereo not drawn), Cc1ccc(SC2CCC(=O)N(C3C(Cl)CCCC3Cl)C2)c(C)c1 (stereo not drawn), Cc1ccc(CC2CN(C)C(=O)N(c3c(Cl)cccc3Cl)C2)cc1 (stereo not drawn), O=C1CCC(Sc2ccc3ccccc3c2)CN1c1c(Cl)cncc1Cl (stereo not drawn), Cc1ccccc1OC1CCC(=O)N(c2c(Cl)ccnc2Cl)C1 (stereo not drawn), Cc1ccccc1CC1CN(c2c(Cl)cccc2Cl)C(=O)CS1 (stereo not drawn), O=C(NCc1ccccc1CC1CCC(=O)N(c2c(Cl)cccc2Cl)C1)Nc1cccc(C(F)(F)F)c1 (stereo not drawn), O=C1SCC(Cc2ccc3ccccc3c2)CN1c1c(Cl)cccc1Cl (stereo not drawn), O=C1CCC(Oc2cc(F)cc(F)c2)CN1c1c(Cl)ccnc1Cl (stereo not drawn), COc1ccccc1SC1CCC(=O)N(c2c(Cl)ccnc2Cl)C1 (stereo not drawn), N#CCCc1cc(Cl)c(N2CC(Cc3ccc(F)cc3F)CCC2=O)c(Cl)c1 (stereo not drawn), COc1ccccc1OC1CCC(=O)N(c2c(Cl)cncc2Cl)C1 (stereo not drawn), O=C(Cc1ccccc1)NC1CC(Cl)C(N2CC(Sc3ccc(F)cc3F)CCC2=O)C(Cl)C1 (stereo not drawn), CC(=O)Nc1ncc(Cl)c(N2CC(Cc3ccc(F)cc3F)CCC2=O)c1Cl (stereo not drawn), C=C(c1ccc(F)cc1F)C1CCC(=O)N(c2c(Cl)cccc2Cl)C1 (stereo not drawn), O=C1CCC(Sc2ccccc2)CN1c1c(Cl)cncc1Cl (stereo not drawn), CNc1cc(Cl)c(N2CC(Sc3ccc(F)cc3F)CCC2=O)c(Cl)n1 (stereo not drawn), COC(=O)c1cc(C)c(N2C[C@@H](Cc3ccc(F)cc3F)C[C@@H](C)C2=O)c(C)c1, OCc1ccccc1CC1CCCN(c2c(Cl)cccc2Cl)C1 (stereo not drawn), O=C1CCC(Oc2ccccc2Cl)CN1c1c(Cl)cncc1Cl (stereo not drawn), O=C1CCC(C(Cl)c2ccc(F)cc2F)CN1c1c(Cl)cccc1Cl (stereo not drawn), Cc1ccc(OC2CCC(=O)N(c3c(Cl)csc3Cl)C2)cc1 (stereo not drawn), O=C(c1ccc(F)cc1F)C1CCC(=O)N(c2c(Cl)cccc2Cl)C1 (stereo not drawn), Cc1ccc2ccccc2c1N1CC(Cc2ccc(F)cc2F)CCC1=O (stereo not drawn), COC(c1ccc(F)cc1F)C1CCC(=O)N(c2c(Cl)cccc2Cl)C1 (stereo not drawn), O=C1CCC(Cc2cc(F)cc(F)c2)CN1c1c(Cl)ccnc1Cl (stereo not drawn), CC(C)(C)OC(=O)N(CCN)c1cc(Cl)c(N2CC(Cc3ccc(F)cc3F)CCC2=O)c(Cl)c1 (stereo not drawn), O=C1CCC(Cc2ccc(C(F)(F)F)cc2)CN1c1c(Cl)cccc1Cl (stereo not drawn), CNc1ccc(Cl)c(N2CC(Cc3ccc(F)cc3F)CNC2=O)c1Cl (stereo not drawn), O=C1CCC(Cc2ccc(F)cc2F)CN1c1c(Cl)cnc(CO)c1Cl (stereo not drawn), COc1ccccc1CC1CCC(=O)N(c2c(Cl)csc2Cl)C1 (stereo not drawn), Nc1ccc(Cl)c(N2CC(Cc3ccc(F)cc3F)CCC2=O)c1 (stereo not drawn), COc1ccccc1CC1CCC(=O)N(c2c(Cl)cncc2Cl)C1 (stereo not drawn), Nc1ccc(Cl)c(N2CC(Cc3ccc(F)cc3F)CNC2=O)c1Cl (stereo not drawn), O=C1CCC(Sc2ccc(F)cc2F)CN1C1C(Cl)CC(CO)CC1Cl (stereo not drawn), O=C1[C@@H](O)C[C@@H](Cc2ccc(F)cc2F)CN1c1c(Cl)cccc1Cl, CNc1ncc(Cl)c(N2CC(Cc3ccc(F)cc3F)CCC2=O)c1Cl (stereo not drawn), O=C1CCC(Oc2cccc3ccccc23)CN1c1c(Cl)ccnc1Cl (stereo not drawn), Cc1cc(C#CCN(C)C)cc(C)c1N1C[C@@H](Cc2ccc(F)cc2F)C[C@@H](C)C1=O, O=C1CCC(Oc2ccccc2)CN1c1c(Cl)csc1Cl (stereo not drawn), O=C1CCC(CO)(Cc2ccc(F)cc2F)CN1c1c(Cl)cccc1Cl (stereo not drawn), O=C1CCC(Sc2ccc(Cl)cc2)CN1C1C(Cl)CCCC1Cl (stereo not drawn), CN(C)C(=O)CNc1cc(Cl)c(N2CC(Cc3ccc(F)cc3F)CCC2=O)c(Cl)c1 (stereo not drawn), NC1CCC(Cl)C(N2CC(Oc3ccc(F)cc3F)CCC2=O)C1Cl (stereo not drawn), O=C1CCC(Oc2ccc3ccccc3c2)CN1c1c(Cl)ccnc1Cl (stereo not drawn), O=C1OCC(Cc2cc(F)cc(F)c2)CN1c1c(Cl)cccc1Cl (stereo not drawn), O=C1CCC(Cc2ccc3ccccc3c2)CN1c1c(Cl)cncc1Cl (stereo not drawn), O=C1CCC(Sc2ccc3ccccc3c2)CN1C1C(Cl)CCCC1Cl (stereo not drawn), O=C1CCC(Sc2ccc(F)cc2F)CN1c1c(Cl)sc(CO)c1Cl (stereo not drawn), CC(=O)Nc1cc(Cl)c(N2CC(Cc3ccc(F)cc3F)CCC2=O)c(Cl)c1 (stereo not drawn), O=C1OCC(Cc2ccc(F)cc2F)CN1c1c(Cl)cc(CO)cc1Cl (stereo not drawn), CC(=O)NCCN(C(=O)OC(C)(C)C)c1cc(Cl)c(N2CC(Cc3ccc(F)cc3F)CCC2=O)c(Cl)c1 (stereo not drawn), Nc1ccc(CC2CCC(=O)N(c3c(Cl)cccc3Cl)C2)cc1 (stereo not drawn), O=C1SCC(Cc2ccc(F)cc2F)CN1c1c(Cl)cc(CO)cc1Cl (stereo not drawn), O=C1CCC(Oc2ccc3ccccc3c2)CN1c1c(Cl)csc1Cl (stereo not drawn), CC(=O)Nc1cc(Cl)c(N2CC(Cc3ccc(F)cc3F)CCC2=O)c(Cl)n1 (stereo not drawn), CN(C)CCCCc1cc(Cl)c(N2CC(Cc3ccc(F)cc3F)CCC2=O)c(Cl)c1 (stereo not drawn), O=C1CCC(Cc2ccccc2)CN1c1c(Cl)csc1Cl (stereo not drawn), Cc1ccc(CC2CCC(=O)N(c3c(Cl)cncc3Cl)C2)c(C)c1 (stereo not drawn), CN(C)c1cc(Cl)c(N2CC(Cc3ccc(F)cc3F)CCC2=O)c(Cl)c1 (stereo not drawn), O=C1CCC(Oc2ccc(F)cc2F)CN1C1C(Cl)CC(O)CC1Cl (stereo not drawn), COc1ccc(OC2CCC(=O)N(c3c(Cl)cncc3Cl)C2)cc1 (stereo not drawn), Cc1cccc(C)c1N1CC(Cc2ccccc2OCC(C)C)CCC1=O (stereo not drawn)
